What was measured:
[1] = tested on: Caco-2 cells; assay: 2-NBDG glucose uptake by Caco-2 cell monolayers, Na+-independent (sodium free buffer); type: cell-based, Human; conditions: 100 μM compound, Na+-independent (KCl/K2HPO4 buffer)
Protocol: Caco-2 cells, which were derived from human colon adenocarcinoma, were selected for intestinal absorption studies because these cells express the morphological characteristics and most of the functional properties of differentiated small-intestinal enterocytes. Caco-2 cells were seeded on 24-well plates at the density of 2 × 10^5 cells/well. The medium was changed every 1–2 days, and the culture was carried out for 13 days. Then Caco-2 cells were placed in serum-free media for 24 h and then they were washed twice with Hanks’ balanced salt solution (HBSS, pH 7.5, 140 mM NaCl, 5 mM KCl, 1.2 mM Na2HPO4, 2 mM CaCl2, 1.2 mM MgSO4, 20 mM HEPES, 0.2% bovine serum albumin) before the uptake studies. When a sodium free buffer was required, NaCl and Na2HPO4 were replaced with equal amounts of KCl and K2HPO4, respectively. After washing, the cells were incubated for 15 min at room temperature in HBSS before the commencement of this experiment. The uptake studies were initiated by adding HBSS containing either control or test solution (100 μM) and […] (100 μM) for 30 min at 37 °C. Glucose uptake was stopped by adding twofold volume of ice-cold PBS and the wells were washed with ice-cold PBS three times. Fluorescent intensity was measured by a Multimodel Plate Reader (Tecan Infinity 200) with the 485 nmex and 535 nmemiss filter set before and after adding 2-NBDG. Then the cells were lysed in 200 μL lysis buffer (10 mM Tris-HCl pH = 7.4, 150 mM NaCl, 1% Triton-x-100, 1 mM EDTA, 0.1% SDS) and supplemented immediately before they were processed with 10 μg/mL PMSF. Cells were allowed to lyse on ice, and then vortexed and sonicated. The lysate was used for protein determination, protein concentrations were determined as described by BCA kit (Boster, Wuhan, China) with bovine serum albumin as standard.

[2] = tested on: SGLT-1; assay: Western blot of SGLT-1 protein expression in Caco-2 cells; type: cell-based, Human; conditions: 100 μM, 6 h
Protocol: Caco-2 cells were cultured on 6-well plates at a density of 1 × 10^6 cells/well for 13 days. The cells were placed in serum-free medium for 24 h prior to the treatment. Then UA and its derivatives (100 μM) were added, after 6 h incubation, the cells were immediately washed three times with ice-cold PBS and lysed in 200 μL lysis buffer. Cells were allowed to lyse on ice, and then scraped, vortexed, sonicated and stored at −80 °C for further analysis. Protein concentrations were determined as described and cell lysate was subjected to western blot analysis. Briefly, proteins with same amount were denatured in sample buffer, separated on 8% SDS-PAGE gel, and transferred onto a polyvinylidene diflouride membrane. […] Membranes were then incubated overnight at 4 °C in blocking buffer with antibodies for GLUT-2, SGLT-1 and β-actin (EMD, Millipore, Billerica, MA, USA). Membranes were washed with TBST and incubated 1 h with appropriate secondary antibodies. Revelation was performed by using the enhanced chemiluminescence reagent and blue-light sensitive film. Densitometric analysis of films was performed with a Hewlett-Packard scanner equipped with a transparent adaptor and UN-SCAN-IT software.

[3] = tested on: GLUT-2; assay: Western blot of GLUT-2 protein expression in Caco-2 cells; type: cell-based, Human; conditions: 100 μM, 6 h
Protocol: Caco-2 cells were cultured on 6-well plates at a density of 1 × 10^6 cells/well for 13 days. The cells were placed in serum-free medium for 24 h prior to the treatment. Then UA and its derivatives (100 μM) were added, after 6 h incubation, the cells were immediately washed three times with ice-cold PBS and lysed in 200 μL lysis buffer. Cells were allowed to lyse on ice, and then scraped, vortexed, sonicated and stored at −80 °C for further analysis. Protein concentrations were determined as described and cell lysate was subjected to western blot analysis. Briefly, proteins with same amount were denatured in sample buffer, separated on 8% SDS-PAGE gel, and transferred onto a polyvinylidene diflouride membrane. The membranes were blocked for 1 h at 37 °C with 10% defatted milk in Tris-buffered saline (10 mM Tris-HCl, pH 7.5 and 137 mM NaCl) containing 0.05% Tween 20 (TBST). Membranes were then incubated overnight at 4 °C in blocking buffer with antibodies for GLUT-2, SGLT-1 and β-actin (EMD, Millipore, Billerica, MA, USA). Membranes were washed with TBST and incubated 1 h with appropriate secondary antibodies. Revelation was performed by using the enhanced chemiluminescence reagent and blue-light sensitive film. Densitometric analysis of films was performed with a Hewlett-Packard scanner equipped with a transparent adaptor and UN-SCAN-IT software.

[4] = tested on: STZ-induced diabetic rats; assay: Serum lipid profile (TG, TC, LDL-C, HDL-C) in STZ-induced diabetic rats; type: in vivo, rat; conditions: 4 weeks, compounds 100 mg/kg, glibenclamide 10 mg/kg
Protocol: (§1) Diabetes was induced by a single intraperitoneal injection of streptozotocin (Sigma-Aldrich, St. Louis, MO, USA) at a dose of 65 mg/kg body weight. STZ was dissolved in 0.1 M cold citrate buffer, pH 4.5. Control group were injected with citrate buffer alone. After 7 days for the development of diabetes, plasma glucose levels were determined of each rat. Rats with fasting blood glucose (FBG) range of above 16.7 mmol/L were considered as DM rats and were used for further study.
(§2) According to the body weight and plasma glucose levels the rats were divided randomly into seven groups with six rats each and treated as follows: • Group I: Normal rats treated with 0.5% CMC-Na (2 mL/200 g body weight). • Group II: Diabetic rats treated with 0.5% CMC-Na. • Group III: Diabetic rats treated with 10 mg/kg of glibenclamide. • Group IV: Diabetic rats treated with 100 mg/kg of compound 1 (UA). • Group V: Diabetic rats treated with 100 mg/kg of compound 10. • Group VI: Diabetic rats treated with 100 mg/kg of compound 11. • Group VII: Diabetic rats treated with 100 mg/kg of compound 12.
(§3) The treatment was continued daily for 28 days. Blood glucose levels and body weight were measured every week to ascertain the status of diabetes. After 4 weeks of treatment, the animals were fasted for 12 h and sacrificed by cervical dislocation under mild anaesthetization, blood was collected into heparinized tubes and centrifuged at 2,000 rpm for 10 min. Livers and kidneys were removed, washed and homogenized in ice-cold normal saline. This homogenates were centrifuged at 3,000 rpm for 10 min at 4 °C, and the supernatants were collected for the estimate of antioxidant markers.
Fasting blood glucose levels were estimated on days 0, 7, 14, 28 with the single touch glucometer (Life Scan, Johnson & Johnson Company, New Brunswick, NJ, USA). Serum insulin level was measured by use of a commercial immunoassay kit by enzyme linked immunosorbent assay (Uscn. Life Science Inc., Wuhan, China). Serum total protein, albumin, triglycerides (TG), total cholesterol (TC), high-density lipoprotein cholesterol (HDL-C), and low-density lipoprotein cholesterol (LDL-C) were measured with an automatic biochemical analyzer (Sinnowa D240, Nanjing, China).

[5] = tested on: STZ-induced diabetic rats; assay: Oxidative stress markers (GSH, SOD, MDA) in liver and kidney of STZ-induced diabetic rats; type: in vivo, rat; conditions: 4 weeks
Protocol: as §1, §2, §3
The tissue homogenates of liver and kidney were used for the estimate of antioxidant markers. Glutathione (GSH) level was measured with 5, 5'-dithiobis-(2-nitrobenzoic acid) (DTNB) as described by Sedlak and Lindsay. Superoxide dismutase (SOD) activity was assessed according to the method of Sinha. Malondialdehyde (MDA) activity was estimated with the thiobarbituric acid method.

CCC(=O)O[C@H]1CC[C@@]2(C)C(CC[C@]3(C)C2CC=C2C4[C@@H](C)[C@H](C)CC[C@]4(C(=O)O)CC[C@]23C)C1(C)C (some centres unmarked) [Compound 10]
glucose uptake, % of the control value (Na+-independent) [1]: 70 % of the control value | effect on protein expression of SGLT-1 [2]: significantly reduce | effect on expression of protein GLUT-2 [3]: significant effects on reducing | serum TC level vs diabetic control [4]: significantly decreased | serum TG level vs diabetic control [4]: significantly decreased | SOD level in the liver and kidney ([5]; liver and kidney of STZ diabetic rats): great improvement | GSH level in liver ([5]; liver of STZ diabetic rats): significant effects | MDA level in the liver ([5]; liver of STZ diabetic rats, daily administration): obviously down-regulated
